From US12606541B2, “PPARg modulators and methods of use” (Eisai R&D Management Co., Ltd., priority 2020, dated 2026)

Each molecule was assayed against T1, His6-TEV-PPARγ-(234-505) (Homo sapiens, UniProt P37231) (assay: TR-FRET Assay to Measure Co-R Peptide Recruitment to PPARγ). Conditions: Co-R peptide recruitment to PPARγ; read-out: TR-FRET AC50.
T1 construct: The His6-TEV-PPARγ-(234-505) protein for assay was expressed and purified; TEV cleavage site (N); made in house
T1 sequence (P37231 234-505): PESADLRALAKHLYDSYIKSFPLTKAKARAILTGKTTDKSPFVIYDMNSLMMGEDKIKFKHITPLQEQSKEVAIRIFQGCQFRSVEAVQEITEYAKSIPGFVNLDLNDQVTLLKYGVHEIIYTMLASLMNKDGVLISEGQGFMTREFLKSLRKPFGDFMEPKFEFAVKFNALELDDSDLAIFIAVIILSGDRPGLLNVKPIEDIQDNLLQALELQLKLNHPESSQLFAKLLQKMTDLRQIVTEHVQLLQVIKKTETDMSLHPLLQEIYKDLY
Type: biochemical
Summary of the method: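 Corepressor recruitment is measured by adding terbium-labeled anti-His antibody and FITC SMRT-ID2 peptide, at 5 and 200 nM final, after a 20-minute room-temperature protein–compound incubation. After one further hour, signal is converted to percent response between DMSO and 500 nM T0070907 wells.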

AC50, > 1000 nM:
COc1cc(-c2cc(C(=O)N3CCC(C(=O)Nc4ccc(CS(C)(=O)=O)cc4)CC3)n[nH]2)c(Cl)cn1 [1-[5-(5-chloro-2-methoxypyridin-4-yl)-1H-pyrazole-3-carbonyl]-N-[4-(methanesulfonylmethyl)phenyl]piperidine-4-carboxamide]
COc1cc(-c2cc(C(=O)N3CCC(C(=O)Nc4cc(C(F)(F)F)ccn4)CC3)n[nH]2)c(Cl)cn1 [1-[5-(5-chloro-2-methoxypyridin-4-yl)-1H-pyrazole-3-carbonyl]-N-[4-(trifluoromethyl)pyridin-2-yl]piperidine-4-carboxamide]
COc1cc(-c2cc(C(=O)N3CCC(C(=O)Nc4ncc(C(C)C)s4)CC3)n[nH]2)c(Cl)cn1 [1-[5-(5-chloro-2-methoxypyridin-4-yl)-1H-pyrazole-3-carbonyl]-N-[5-(propan-2-yl)-1,3-thiazol-2-yl]piperidine-4-carboxamide]
COc1cc(-c2cc(C(=O)N3CCC(C(=O)NCc4ncon4)CC3)n[nH]2)c(Cl)cn1 [1-[5-(5-chloro-2-methoxypyridin-4-yl)-1H-pyrazole-3-carbonyl]-N-[(1,2,4-oxadiazol-3-yl)methyl]piperidine-4-carboxamide]
COc1cc(-c2cc(C(=O)N3CCC(C(=O)NCc4ccon4)CC3)n[nH]2)c(Cl)cn1 [1-[5-(5-chloro-2-methoxypyridin-4-yl)-1H-pyrazole-3-carbonyl]-N-[(1,2-oxazol-3-yl)methyl]piperidine-4-carboxamide]
COc1cc(-c2cc(C(=O)N3CCC(C(=O)NCc4c(C)nn(C)c4C)CC3)n[nH]2)c(Cl)cn1 [1-[5-(5-chloro-2-methoxypyridin-4-yl)-1H-pyrazole-3-carbonyl]-N-[(1,3,5-trimethyl-1H-pyrazol-4-yl)methyl]piperidine-4-carboxamide]
COc1cc(-c2cc(C(=O)N3CCC(C(=O)NCC4OCCCO4)CC3)n[nH]2)c(Cl)cn1 [1-[5-(5-chloro-2-methoxypyridin-4-yl)-1H-pyrazole-3-carbonyl]-N-[(1,3-dioxan-2-yl)methyl]piperidine-4-carboxamide]
COc1cc(-c2cc(C(=O)N3CCC(C(=O)NCC4CCOCO4)CC3)n[nH]2)c(Cl)cn1 (centres unmarked) [1-[5-(5-chloro-2-methoxypyridin-4-yl)-1H-pyrazole-3-carbonyl]-N-[(1,3-dioxan-4-yl)methyl]piperidine-4-carboxamide]
COc1cc(-c2cc(C(=O)N3CCC(C(=O)NCC4OCCO4)CC3)n[nH]2)c(Cl)cn1 [1-[5-(5-chloro-2-methoxypyridin-4-yl)-1H-pyrazole-3-carbonyl]-N-[(1,3-dioxolan-2-yl)methyl]piperidine-4-carboxamide]
COc1cc(-c2cc(C(=O)N3CCC(C(=O)NCc4ncco4)CC3)n[nH]2)c(Cl)cn1 [1-[5-(5-chloro-2-methoxypyridin-4-yl)-1H-pyrazole-3-carbonyl]-N-[(1,3-oxazol-2-yl)methyl]piperidine-4-carboxamide]
COc1cc(-c2cc(C(=O)N3CCC(C(=O)NCc4cnco4)CC3)n[nH]2)c(Cl)cn1 [1-[5-(5-chloro-2-methoxypyridin-4-yl)-1H-pyrazole-3-carbonyl]-N-[(1,3-oxazol-5-yl)methyl]piperidine-4-carboxamide]
COc1cc(-c2cc(C(=O)N3CCC(C(=O)NCC4COCCO4)CC3)n[nH]2)c(Cl)cn1 (centres unmarked) [1-[5-(5-chloro-2-methoxypyridin-4-yl)-1H-pyrazole-3-carbonyl]-N-[(1,4-dioxan-2-yl)methyl]piperidine-4-carboxamide]
COc1cc(-c2cc(C(=O)N3CCC(C(=O)NCC4(C#N)CC4)CC3)n[nH]2)c(Cl)cn1 [1-[5-(5-chloro-2-methoxypyridin-4-yl)-1H-pyrazole-3-carbonyl]-N-[(1-cyanocyclopropyl)methyl]piperidine-4-carboxamide]
COc1cc(-c2cc(C(=O)N3CCC(C(=O)NCC4(O)CCC4)CC3)n[nH]2)c(Cl)cn1 [1-[5-(5-chloro-2-methoxypyridin-4-yl)-1H-pyrazole-3-carbonyl]-N-[(1-hydroxycyclobutyl)methyl]piperidine-4-carboxamide]
COc1cc(-c2cc(C(=O)N3CCC(C(=O)NCC4(O)CC4)CC3)n[nH]2)c(Cl)cn1 [1-[5-(5-chloro-2-methoxypyridin-4-yl)-1H-pyrazole-3-carbonyl]-N-[(1-hydroxycyclopropyl)methyl]piperidine-4-carboxamide]
COc1cc(-c2cc(C(=O)N3CCC(C(=O)NCc4nccn4C)CC3)n[nH]2)c(Cl)cn1 [1-[5-(5-chloro-2-methoxypyridin-4-yl)-1H-pyrazole-3-carbonyl]-N-[(1-methyl-1H-imidazol-2-yl)methyl]piperidine-4-carboxamide]
COc1cc(-c2cc(C(=O)N3CCC(C(=O)NCc4cn(C)cn4)CC3)n[nH]2)c(Cl)cn1 [1-[5-(5-chloro-2-methoxypyridin-4-yl)-1H-pyrazole-3-carbonyl]-N-[(1-methyl-1H-imidazol-4-yl)methyl]piperidine-4-carboxamide]
COc1cc(-c2cc(C(=O)N3CCC(C(=O)NCc4ccn(C)n4)CC3)n[nH]2)c(Cl)cn1 [1-[5-(5-chloro-2-methoxypyridin-4-yl)-1H-pyrazole-3-carbonyl]-N-[(1-methyl-1H-pyrazol-3-yl)methyl]piperidine-4-carboxamide]
COc1cc(-c2cc(C(=O)N3CCC(C(=O)NCC4CC(=O)N(C)C4)CC3)n[nH]2)c(Cl)cn1 (centres unmarked) [1-[5-(5-chloro-2-methoxypyridin-4-yl)-1H-pyrazole-3-carbonyl]-N-[(1-methyl-5-oxopyrrolidin-3-yl)methyl]piperidine-4-carboxamide]
COc1cc(-c2cc(C(=O)N3CCC(C(=O)NCC4CN(C)C4)CC3)n[nH]2)c(Cl)cn1 [1-[5-(5-chloro-2-methoxypyridin-4-yl)-1H-pyrazole-3-carbonyl]-N-[(1-methylazetidin-3-yl)methyl]piperidine-4-carboxamide]
COc1cc(-c2cc(C(=O)N3CCC(C(=O)NCc4ccc5[nH]ncc5c4)CC3)n[nH]2)c(Cl)cn1 [1-[5-(5-chloro-2-methoxypyridin-4-yl)-1H-pyrazole-3-carbonyl]-N-[(1H-indazol-5-yl)methyl]piperidine-4-carboxamide]
COc1cc(-c2cc(C(=O)N3CCC(C(=O)NCc4c(F)ccc(C)c4F)CC3)n[nH]2)c(Cl)cn1 [1-[5-(5-chloro-2-methoxypyridin-4-yl)-1H-pyrazole-3-carbonyl]-N-[(2,6-difluoro-3-methylphenyl)methyl]piperidine-4-carboxamide]
COc1cc(-c2cc(C(=O)N3CCC(C(=O)NCc4ccccc4C#N)CC3)n[nH]2)c(Cl)cn1 [1-[5-(5-chloro-2-methoxypyridin-4-yl)-1H-pyrazole-3-carbonyl]-N-[(2-cyanophenyl)methyl]piperidine-4-carboxamide]
COc1cc(-c2cc(C(=O)N3CCC(C(=O)NCC4(C)OCCO4)CC3)n[nH]2)c(Cl)cn1 [1-[5-(5-chloro-2-methoxypyridin-4-yl)-1H-pyrazole-3-carbonyl]-N-[(2-methyl-1,3-dioxolan-2-yl)methyl]piperidine-4-carboxamide]
COc1cc(-c2cc(C(=O)N3CCC(C(=O)NCc4ccc5c(c4)CN(C)C5)CC3)n[nH]2)c(Cl)cn1 [1-[5-(5-chloro-2-methoxypyridin-4-yl)-1H-pyrazole-3-carbonyl]-N-[(2-methyl-2,3-dihydro-1H-isoindol-5-yl)methyl]piperidine-4-carboxamide]
COc1cc(-c2cc(C(=O)N3CCC(C(=O)NCC4(C)CCCO4)CC3)n[nH]2)c(Cl)cn1 (centres unmarked) [1-[5-(5-chloro-2-methoxypyridin-4-yl)-1H-pyrazole-3-carbonyl]-N-[(2-methyloxolan-2-yl)methyl]piperidine-4-carboxamide]
COc1cc(-c2cc(C(=O)N3CCC(C(=O)N[C@@H]4C[C@@H](C)Oc5ccccc54)CC3)n[nH]2)c(Cl)cn1 [1-[5-(5-chloro-2-methoxypyridin-4-yl)-1H-pyrazole-3-carbonyl]-N-[(2R,4R)-2-methyl-3,4-dihydro-2H-1-benzopyran-4-yl]piperidine-4-carboxamide]
COc1cc(-c2cc(C(=O)N3CCC(C(=O)NCC4OCC4(C)C)CC3)n[nH]2)c(Cl)cn1 (centres unmarked) [1-[5-(5-chloro-2-methoxypyridin-4-yl)-1H-pyrazole-3-carbonyl]-N-[(3,3-dimethyloxetan-2-yl)methyl]piperidine-4-carboxamide]
COc1cc(-c2cc(C(=O)N3CCC(OCC(F)(F)F)(C(=O)NCc4cccc(Cl)c4)CC3)n[nH]2)c(Cl)cn1 [1-[5-(5-chloro-2-methoxypyridin-4-yl)-1H-pyrazole-3-carbonyl]-N-[(3-chlorophenyl)methyl]-4-(2,2,2-trifluoroethoxy)piperidine-4-carboxamide]
